Experimental data from patent US20230181604A1, “Use of Mitochondria-Targeted Antioxidants to Treat Severe Inflammatory Conditions” (Mitotech S.A., priority 2020, published 2023).

Legend:
mice [1] = assay: Shock by injection of isolated liver mitochondria into the tail vein, survival; format: in vivo; conditions: for Mortality after mitochondria injection: C12 TPP instead of SkQ1
Procedure: (§1) SkQ1 protected mice in three different mouse models of severe critical conditions. The first critical condition was induced by injection of a suspension of isolated liver mitochondria into the mouse tail vein. The second critical condition was induced by the sharp cold shock of placing mice for 90 minutes in a −20° C. environment. The third condition was induced by administration of a toxic concentration the of lipophilic cation C12 TPP, whose formula is shown below
The injection of mitochondria had no effect on survival during the first day (100% of the animals survived). However only 60% of animals survived the next two days. This survival rate persisted for at least 16 days. […] In this experiment a strong reduction in weight was clearly observed in the first 3 days after injection of mitochondria. Then the surviving animals began to recover—mortality disappeared, and body weight began to increase. In a control experiment, C12 TPP was used instead of SkQ1. In the case of C12 TPP, 20% of mice died in the first half day after the injection of mitochondria, and in two days the mortality had grown to 80%.
(§2) In the next series of experiments, it was investigated whether animals can be rescued by SkQ1 treatment administered simultaneously with the challenge or even after the challenge.

mice [2] = assay: Cold shock (90 minutes at −20° C.), survival; format: in vivo
Procedure: as §1
In the next experiment, critical condition was caused by a completely different stress, namely by cold shock resulting from incubating mice for 1.5 hours at −20° C. It can be seen in FIG. 8 that cold shock led to dramatic increase of mortality between days 5 and 8, resulting in a survival rate of 40%.
as §2

mice [3] = assay: Lethal shock by toxic dose of C12 TPP, survival; format: in vivo
Procedure: as §1
In the next experiment a critical condition in mice was induced by i/v injection of a toxic dose of C12 TPP (34 μmole/kg). Considering the membrane-penetrating and membrane-disruptive properties of C12 TPP, it can be expected that the lethal effect of i/v injection of C12 TPP occurs due to disruption of cells in the vascular system, including vascular endothelial cells.
This set of experiments was continued using the lethal shock was caused by toxic concentrations of C12 TPP. Two dosages of C12 TPP were used: 34 μmol/kg C12 TPP (FIG. 12) or 42 μmol/kg C12 TPP (FIG. 13). In the data shown in FIG. 12, SkQ1 (1.5 μmol/kg dosage) was administered to each of the mice both at 4.5 hours before C12 TPP and 0.5 hours after C12 TPP administration. Without SkQ1, about 80% of mice died within 32 hours after the injection of C12 TPP; with SkQ1 the death rate was reduced to 40%. In the experiment described in FIG. 13, the amount of C12 TPP was increased to 42 μmol/kg. […] In the experimental group, SkQ1 was administered once within 1 hour after C12 TPP treatment. In the SkQ1 treatment group ⅓ of the animals survived (FIG. 13).

[4] = SkQ1 bioavailability study, LCMS/MS blood concentration after i/v, i/p, s/c injection; format: in vivo; conditions: Wistar rats, 2 mg\kg
Procedure: The bioavailability of SkQ1 was determined after using different methods of administration. SPF category Wistar rats were used. SkQ1 concentration in blood samples was measured using an LCMS/MS method SkQ1 was administered at 2 mg\kg, and blood samples were taken at the indicated time points. Administration was by intravenous injection (FIG. 1A), intraperitoneal injection (FIG. 1B), or subcutaneous injection (FIG. 1C). Total SkQ1 dose was calculated as area under the curve (AUC) as shown at left of FIG. 1D. SkQ1 bioavailability was normalized to that of i/v administration and is shown at the right side of FIG. 1D.

[5] = SkQ1 blood concentration with subcutaneous slow-release infusion pumps; format: in vivo; conditions: Wistar rats, slow-release infusion pumps introduced subcutaneously
Procedure: In the next experiment SkQ1 presence in the blood was prolonged by using slow-release infusion pumps introduced subcutaneously into Wistar rats. Blood samples from these animals were taken at timepoints indicated on FIG. 2, and SkQ1 concentration was measured as described above. […] This experiment also models administration of SkQ1 using intravenous infusion.

[6] = tested on: human vascular endothelial cells; assay: VE-cadherin study of endothelial cell-to-cell contacts after SIRS/sepsis patient serum (western blot, fluorescence microscopy); format: cell-based
Procedure: The mitochondrially targeted antioxidants disclosed herein can prevent deconstruction of cell-to-cell contacts between human vascular endothelial cells in culture when these cells are treated with blood serum samples from patients with SIRS or sepsis. Results of a VE-cadherin western blot are presented on FIG. 3, wherein a cell culture of human endothelial cells is pretreated with different dosages of SkQ1, then exposed to serum from patients diagnosed with sepsis. […] In FIG. 4, blood samples are taken from patients with diagnosed SIRS, with the patients age 18-75 years. A cell culture of human endothelial cells is pretreated with different dosages of SkQ1, then treated with 5-10% serum from the SIRS blood samples. At the top of FIG. 4, the VE-cadherin (fluorescence microscopy) c resembles the VE-cadherin at the bottom of FIG. 4 (SIRS serum+200 nM SkQ1). Actin and nucleus visualizations in FIG. 4 correspond with VE-cadherin observations.
Blood samples were taken from patients ages 18-75 years with diagnosed SIRS. Cell cultures of human endothelial cells were pretreated with different amounts of SkQ1, after which the cultures were treated with 5-10% serum from the SIRS blood samples. A one hour VE-cadherin study was performed by fluorescent microscopy followed by western-blot analysis. Results of the experiment are presented on FIG. 3 (western blot) and FIG. 4 (microscopy).

[7] = tested on: H5N1 influenza virus (strain chicken/Kurgan/5/2005); format: in vivo, balb\c mice
CD-1 mice [8] = assay: Acute toxicity, subcutaneous administration; format: in vivo; conditions: for LD50: subcutaneous
From the text: The acute toxicity of SkQ1 solution administered by subcutaneous administration was studied in SPF male and female CD-1 mice.

CD-1 mice [9] = assay: 28-day chronic toxicity with 14-day recovery, subcutaneous; format: in vivo
Procedure: SkQ1 solution 28-day chronic toxicity with 14-day recovery was studied in SPF male and female CD-1 mice at SkQ1 dosage of 0.6, 2.5, and 10 mg/kg administered subcutaneously, once daily. At 2.5 mg SkQ1/kg no adverse effects were identified (NOAEL) either at the end of the dosing or at the end of recovery. […] Peritonitis stemmed from the local ulcerative action of the formulation, while the adverse reactions of systems/organs were apparently the consequences of peritonitis.

TNFα = TNFα concentration in blood after shock; format: in vivo, mice; conditions: intravenous injection of liver mitochondria, i/p SkQ1
IL-6 = IL-6 concentration in blood after shock; format: in vivo, mice; conditions: intravenous injection of liver mitochondria, i/p SkQ1
[10] = H5N1-infected mice, i/p SkQ1 from day 2
[11] = SkQ1 injected one minute after shock stimulus

## CCCCCCCCCCCC[P+](c1ccccc1)(c1ccccc1)c1ccccc1 [C12 TPP, reference compound]
Mice [1]; first half day after injection
  Mortality after mitochondria injection: 20%
Mice [1]; in two days
  Mortality after mitochondria injection: 80%
Mice [2]; premedication and treatment, by the sixth day
  Mortality after cold shock: 100%
Mice [3]; 34 μmol/kg C12 TPP without SkQ1, within 32 hours
  Mice died after C12 TPP: about 80%
Mice [3]; 34 μmol/kg i/v, within 1 day
  Mortality caused by C12 TPP: 90%
Mice [3]; 42 μmol/kg C12 TPP, control group, within 1.5 hours
  Death after C12 TPP: all 12 animals died

## SkQ1
[4]; i/p, AUC normalized to i/v
  SkQ1 bioavailability for intraperitoneal administration, of the bioavailability after intravenous administration: 35%
[4]; i/v, i/p or s/c injection
  Persistence of SkQ1 in blood after injection: rapidly disappears from the blood
[4]; subcutaneous, AUC normalized to i/v
  SkQ1 bioavailability for subcutaneous administration, of the bioavailability after intravenous administration: 44%
[5]
  SkQ1 concentration in the blood with slow release: can be stabilized
[6]; 200 nM SkQ1 and sepsis patient serum
  VE-cadherin western blot intensity versus control: about equal intensity to the control
[6]; SIRS serum + 200 nM SkQ1
  VE-cadherin fluorescence microscopy versus control: resembles
[6]; cells treated with serum from patients with SIRS or sepsis, SkQ1 pretreatment
  Deconstruction of cell-to-cell contacts between endothelial cells: prevented
[7]; [10]
  Death caused by influenza virus infection: delayed
  Development of bad health condition: delayed
[7]; intraperitoneal SkQ1 1000 nmoles/kg and 3000 nmoles/kg
  Protection against critical condition: protects against the critical condition
CD-1 mice [8]; 14 days after administration of toxic doses
  Findings in mice surviving toxic doses: signs of hepato- and nephrotoxicity
CD-1 mice [8]; first hours after subcutaneous administration
  Cause of lethal effect of high doses: respiratory arrest
CD-1 mice [8]; female CD-1 mice
  LD50: 26.8 (23-31) mg SkQ1/kg
CD-1 mice [8]; male CD-1 mice
  LD50: 31 (20.5-37.2) mg SkQ1/kg
CD-1 mice [9]; 10 mg/kg subcutaneous once daily, 28 days
  Animals died (due to peritonitis): ≈ 15%
CD-1 mice [9]; 28 days subcutaneous once daily, 14-day recovery
  NOAEL (no adverse effects identified): 2.5 mg SkQ1/kg
Mice [1]; [11]
  Mortality from injection of mitochondria: significantly reduced
Mice [1]; treatment five days before and five days after mitochondria injection
  Survival after mitochondria injection: 90%
Mice [2]; [11]
  Mortality from cold shock: significantly reduced
Mice [2]; premedication and after-shock treatment
  Death of animals after cold shock: completely prevented
Mice [3]; 34 μmol/kg C12 TPP, SkQ1 pretreatment
  Effect on mortality caused by C12 TPP: prevented
Mice [3]; 34 μmol/kg C12 TPP, SkQ1 1.5 μmol/kg 4.5 hours before and 0.5 hours after
  Death rate after C12 TPP with SkQ1: 40%
Mice [3]; 42 μmol/kg C12 TPP, SkQ1 once within 1 hour after C12 TPP
  Fraction of animals survived: ⅓
TNFα
  Increase of blood concentration of TNFα: almost completely suppressed
IL-6
  Increase of blood concentration of IL-6: almost completely suppressed
